# Measured values from patent publication US20180099931A1 (AbbVie S.à.r.l., priority 2016, published 2018).
# Read-outs that look alike come from different tables or passages of the source.
# Target: T1, F508delCFTR (Homo sapiens, UniProt P13569, DEL508-508)
# T1 construct: expressed in transfected cells; host or cells: CFBE41o- human lung-derived epithelial cells (CFBE4lo-F508delCFTR-HRP), doxycycline-inducible
# Assay: Cell Surface Expression-Horse Radish Peroxidase (CSE-HRP) Assay;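 on Maximum % activity (with co-corrector): co-corrector and positive control are both the same reference corrector at 2 µM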;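 on Maximum % activity (without co-corrector): percent of the 2 µM on-plate positive control corrector response above DMSO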
# Format: cell-based
# Details: for Maximum % activity (with co-corrector) / Emax: maximum at any tested concentration, normalized to on-plate positive control; for Emax: read-out: Maximum % activity (without co-corrector)
# [1] = CSE-HRP, test compound without co-corrector, read-out: EC50 (without co-corrector)
# [2] = CSE-HRP, with co-corrector (2 μM of 3-[(2R,4R)-4-({[1-(2,2-difluoro-1,3-benzodioxol-5-yl)cyclopropyl]carbonyl}amino)-7-methoxy-3,4-dihydro-2H-chromen-2-yl]benzoic acid), read-out: EC50 (with co-corrector)
# [3] = CSE-HRP, with co-corrector (2 μM)
# [4] = test compound without co-corrector, read-out: EC50 (without co-corrector)
# [5] = with co-corrector (2 μM of 3-[(2R,4R)-4-({[1-(2,2-difluoro-1,3-benzodioxol-5-yl)cyclopropyl]carbonyl}amino)-7-methoxy-3,4-dihydro-2H-chromen-2-yl]benzoic acid), read-out: EC50 (with co-corrector)
# [6] = test compound without co-corrector
# [7] = with co-corrector (2 μM of 3-[(2R,4R)-4-({[1-(2,2-difluoro-1,3-benzodioxol-5-yl)cyclopropyl]carbonyl}amino)-7-methoxy-3,4-dihydro-2H-chromen-2-yl]benzoic acid)
# T1 sequence (P13569 with tags, fused parts or gaps DEL508-508): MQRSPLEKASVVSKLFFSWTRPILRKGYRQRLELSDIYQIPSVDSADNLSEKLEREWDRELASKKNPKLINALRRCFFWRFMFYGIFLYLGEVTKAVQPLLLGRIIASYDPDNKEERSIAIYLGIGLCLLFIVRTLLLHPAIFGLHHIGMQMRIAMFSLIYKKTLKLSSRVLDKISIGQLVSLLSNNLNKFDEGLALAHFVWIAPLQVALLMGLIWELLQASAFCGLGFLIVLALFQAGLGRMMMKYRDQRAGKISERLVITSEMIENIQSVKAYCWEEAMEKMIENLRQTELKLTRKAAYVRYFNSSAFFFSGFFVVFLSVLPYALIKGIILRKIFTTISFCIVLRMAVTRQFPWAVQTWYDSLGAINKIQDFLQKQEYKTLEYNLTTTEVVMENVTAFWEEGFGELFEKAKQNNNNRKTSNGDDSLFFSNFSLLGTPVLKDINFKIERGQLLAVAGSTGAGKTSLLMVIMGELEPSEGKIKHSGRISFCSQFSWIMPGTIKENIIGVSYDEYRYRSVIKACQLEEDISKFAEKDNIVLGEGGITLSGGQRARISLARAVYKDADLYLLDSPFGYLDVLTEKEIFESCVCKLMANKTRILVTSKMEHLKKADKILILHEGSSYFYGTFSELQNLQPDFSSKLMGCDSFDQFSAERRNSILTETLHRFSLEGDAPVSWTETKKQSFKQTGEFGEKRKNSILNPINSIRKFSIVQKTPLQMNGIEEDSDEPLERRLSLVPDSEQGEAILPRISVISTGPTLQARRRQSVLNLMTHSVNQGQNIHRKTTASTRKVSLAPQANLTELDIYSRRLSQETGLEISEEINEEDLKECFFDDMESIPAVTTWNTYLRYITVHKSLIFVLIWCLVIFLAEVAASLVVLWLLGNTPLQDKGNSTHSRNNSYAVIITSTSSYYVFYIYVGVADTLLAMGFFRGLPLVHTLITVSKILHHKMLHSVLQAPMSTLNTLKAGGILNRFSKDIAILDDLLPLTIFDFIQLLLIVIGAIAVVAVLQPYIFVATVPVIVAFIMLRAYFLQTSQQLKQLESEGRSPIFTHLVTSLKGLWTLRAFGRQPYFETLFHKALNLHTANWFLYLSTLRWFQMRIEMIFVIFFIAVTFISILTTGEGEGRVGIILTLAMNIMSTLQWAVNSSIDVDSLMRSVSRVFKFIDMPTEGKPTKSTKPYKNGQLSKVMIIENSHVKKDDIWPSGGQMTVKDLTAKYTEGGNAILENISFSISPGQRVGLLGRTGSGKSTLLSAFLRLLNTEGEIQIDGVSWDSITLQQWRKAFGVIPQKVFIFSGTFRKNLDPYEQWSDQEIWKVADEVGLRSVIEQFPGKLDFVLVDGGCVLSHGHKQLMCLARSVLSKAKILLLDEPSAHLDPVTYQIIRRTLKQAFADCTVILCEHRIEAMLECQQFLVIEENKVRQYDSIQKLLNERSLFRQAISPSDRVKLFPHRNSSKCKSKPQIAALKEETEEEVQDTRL
Compound,EC50 [1] [nM],EC50 [2] [nM],Maximum % activity (with co-corrector) [3],"Emax (CSE-HRP, without co-corrector) [%]",EC50 [4] [nM],EC50 [5] [nM],Maximum % activity (with co-corrector) (with co-corrector (2 μM)),Emax (without co-corrector) [%],Emax [6] [%],Maximum % activity (with co-corrector) [7]
CC(C)(C)[C@@H]1[C@@H](NCc2ccccc2OC(F)F)[C@@H](c2ccccn2)N(C(=O)C2CCCCC2)[C@H]1C(=O)O (racemic) [Example I-11],,,,,1000 to 10000,1000 to 10000,++ (≥150 and <350),< 100,,
"COc1ccc(C(F)(F)F)cc1CN[C@@H]1[C@@H](C(C)(C)OC)[C@H](C(=O)O)N(C(=O)C2CCCCC2)[C@@H]1c1ccccc1 (racemic) [Example 6, rac-(2R,3R,4R,5R)-1-(cyclohexanecarbonyl)-3-(2-methoxypropan-2-yl)-4-({[2-methoxy-5-(trifluoromethyl)phenyl]methyl}amino)-5-phenylpyrrolidine-2-carboxylic acid]",,,,,1000 to 10000,1000 to 10000,+++ (≥350),> 200,,
"COc1ncc(C2CCC2)cc1CN[C@H]1[C@H](C(C)(C)C)[C@@H](C(=O)O)N(C(=O)C2CCCCC2)[C@H]1c1ccccc1 [Example 16, (2S,3S,4S,5S)-3-tert-butyl-4-{[(5-cyclobutyl-2-methoxypyridin-3-yl)methyl]amino}-1-(cyclohexanecarbonyl)-5-phenylpyrrolidine-2-carboxylic acid]",,,,,< 1000,< 1000,+++ (≥350),> 200,,
CC(C)c1ccccc1CN[C@@H]1[C@@H](C(C)(C)C)[C@H](C(=O)O)N(C(=O)C2CCCCC2)[C@@H]1c1ccccc1 (racemic) [Example I-35],,,,,< 1000,< 1000,+++ (≥350),< 100,,
COc1cc2c(cc1CN[C@H]1[C@H](C(C)(C)C)[C@@H](C(=O)O)N(C(=O)OC(C)C)[C@H]1c1cccnc1N(C)C)C(C)(C)CCC2(C)C [Example I-251],1000 to 10000,1000 to 10000,+++ (≥350),100 to 200,,,,,,
COc1c(CN[C@@H]2[C@@H](C(C)(C)C)[C@H](C(=O)O)N(C(=O)C3CCCCC3)[C@@H]2c2ccccc2)c(C)nn1C (racemic) [Example I-4],,,,,> 10000,1000 to 10000,+ (<150),< 100,,
"Cc1cc(C(F)(F)F)cc(N[C@H]2[C@H](C(C)(C)C)[C@@H](C(=O)O)N(C(=O)OC(C)C)[C@H]2c2ccccc2C(C)C)n1 [Example 82, (2S,3S,4S,5S)-3-tert-butyl-4-{[6-methyl-4-(trifluoromethyl)pyridin-2-yl]amino}-1-{[(propan-2-yl)oxy]carbonyl}-5-[2-(propan-2-yl)phenyl]pyrrolidine-2-carboxylic acid]",,,,,1000 to 10000,1000 to 10000,++ (≥150 and <350),< 100,,
COc1ncc(C2CCC2)cc1CN[C@H]1[C@H](C(C)(C)C)[C@@H](C(=O)O)N(C(=O)C2CCCCC2)[C@H]1c1cccnc1OC [Example I-237],,,,,1000 to 10000,1000 to 10000,+++ (≥350),100 to 200,,
COc1nc(C(C)(C)C)ccc1CN[C@H]1[C@H](C(C)(C)C)[C@@H](C(=O)O)N(C(=O)C2CCCCC2)[C@H]1c1ccccc1C(C)C [Example I-187],,,,,< 1000,< 1000,+++ (≥350),> 200,,
CC(C)c1cc(C(F)(F)F)cc(N[C@H]2[C@H](C(C)(C)C)[C@@H](C(=O)O)N(C(=O)C3CCCCC3)[C@H]2c2ccccc2)n1 [Example I-54],,,,,1000 to 10000,1000 to 10000,++ (≥150 and <350),< 100,,

# Results, then the compound that gave them:
EC50 [1] [nM],EC50 [2] [nM],Maximum % activity (with co-corrector) [3],"Emax (CSE-HRP, without co-corrector) [%]",EC50 [4] [nM],EC50 [5] [nM],Maximum % activity (with co-corrector) (with co-corrector (2 μM)),Emax (without co-corrector) [%],Emax [6] [%],Maximum % activity (with co-corrector) [7],Compound
1000 to 10000,1000 to 10000,+++ (≥350),100 to 200,,,,,,,COc1nc(C(F)(F)F)ccc1CN[C@@H]1[C@@H](C(C)(C)C)[C@H](C(=O)O)N(C(=O)C2CCCCC2)[C@@H]1c1ccccc1 (racemic) [II-77]
1000 to 10000,1000 to 10000,+++ (≥350),> 200,,,,,,,COc1ccc(C(F)(F)F)cc1CN[C@@H]1[C@@H](C(C)(C)C)[C@H](C(=O)O)N(C(=O)[C@H]2CCCO[C@H]2C)[C@@H]1c1ccccc1 (racemic) [II-35]
,,,,< 1000,< 1000,,,< 100,+++ (≥350),COc1ccc(C(C)(C)C)cc1CN[C@H]1[C@H](C(C)(C)C)[C@@H](C(=O)O)N(C(=O)C2(c3ccccc3)COc3ccccc32)[C@H]1c1ccccc1 (some centres unmarked) [II-370]
,,,,< 1000,< 1000,,,100 to 200,+++ (≥350),COc1ccc(C(C)(C)C)cc1CN[C@H]1[C@H](C(C)(C)C)[C@@H](C(=O)O)N(C(=O)c2ccc(OC(F)(F)F)cc2)[C@H]1c1cccnc1N(C)C [II-467]
,,,,1000 to 10000,1000 to 10000,,,> 200,+++ (≥350),COc1ncc(C(F)(F)F)cc1CN[C@H]1[C@H](C(C)(C)C)[C@@H](C(=O)O)N(C(=O)OC(C)C)[C@H]1c1ccccc1C [II-580]
1000 to 10000,1000 to 10000,+++ (≥350),100 to 200,,,,,,,COc1ccc(C(C)(C)C)cc1CN[C@H]1[C@H](C(C)(C)C)[C@@H](C(=O)O)N(C(=O)Cc2nn(C)c(=O)c3ccccc23)[C@H]1c1ccccc1 [II-221]
1000 to 10000,1000 to 10000,++ (≥150 and <350),< 100,,,,,,,Cc1cc(C(F)(F)F)cc(N[C@H]2[C@H](C(C)(C)C)[C@@H](C(=O)O)N(C(=O)C3CCCCC3)[C@H]2c2ccccn2)n1 (racemic) [II-53]
,,,,1000 to 10000,1000 to 10000,,,< 100,++ (≥150 and <350),Cc1cc(C(F)(F)F)cc(N[C@@H]2[C@@H](C(C)(C)C)[C@H](C(=O)O)N(C(=O)OC(C)C)[C@@H]2c2cccnc2N(C)C)n1 (racemic) [III-93]
,,,,> 10000,> 10000,+ (<150),,< 100,,CC(C)(C)[C@H]1[C@H](Nc2nc(Nc3ccccc3)ccc2C#N)[C@H](c2ccccc2)N(C(=O)C2CCCCC2)[C@@H]1C(=O)O [III-150]
1000 to 10000,1000 to 10000,+++ (≥350),100 to 200,,,,,,,COc1cc(C(F)(F)F)ccc1CN[C@H]1[C@H](C(C)(C)C)[C@@H](C(=O)O)N(C(=O)C2OC[C@@H]3CCC[C@H]23)[C@H]1c1ccccc1 (some centres unmarked) [II-241]
1000 to 10000,1000 to 10000,+++ (≥350),100 to 200,,,,,,,COc1cc(Cl)ccc1CN[C@@H]1[C@@H](C(C)(C)C)[C@H](C(=O)O)N(C(=O)C2CCCOC2)[C@@H]1c1ccccc1N(C)C (mixture of isomers) [II-23]
,,,,< 1000,< 1000,+++ (≥350),,> 200,,COc1ccc(C(C)(C)C)cc1CN[C@H]1[C@H](C(C)(C)C)[C@@H](C(=O)O)N(C(=O)C2CCc3ccccc3C2)[C@H]1c1ccccc1 (some centres unmarked) [III-191]
< 1000,< 1000,+++ (≥350),> 200,,,,,,,COc1ccc(C2CCCCC2)cc1CN[C@H]1[C@H](C(C)(C)C)[C@@H](C(=O)O)N(C(=O)C2CCCCC2)[C@H]1c1ccccc1 [II-192]
1000 to 10000,1000 to 10000,+++ (≥350),< 100,,,,,,,COc1ccc(C(C)(C)C)cc1CN[C@H]1[C@H](C(C)(C)C)[C@@H](C(=O)O)N(C(=O)c2cc(Cl)c(=O)n(C(C)C)c2)[C@H]1c1ccccc1 [II-223]
,,,,1000 to 10000,1000 to 10000,+++ (≥350),,< 100,,Cc1cc(C)c(C#N)c(N[C@H]2[C@H](C(C)(C)C)[C@@H](C(=O)O)N(C(=O)C3CCCCC3)[C@H]2c2ccccc2)n1 [III-148]
< 1000,< 1000,+++ (≥350),> 200,,,,,,,COc1ccc(C2CCCCC2)cc1CN[C@H]1[C@H](C(C)(C)OC)[C@@H](C(=O)O)N(C(=O)C2CCCCC2)[C@H]1c1ccccc1 [II-257]
,,,,1000 to 10000,1000 to 10000,,,100 to 200,+++ (≥350),COc1cc(C(F)(F)F)ccc1CN[C@H]1[C@H](C(C)(C)C)[C@@H](C(=O)O)N(C(=O)[C@@H]2CCCO2)[C@H]1c1cccnc1C1CC1 [II-587]
,,,,< 1000,< 1000,,,100 to 200,+++ (≥350),COc1ccc(C23CC(C2)C3)cc1CN[C@H]1[C@H](C(C)(C)C)[C@@H](C(=O)O)N(C(=O)C2CCCCC2)[C@H]1c1ccccc1OC [II-484]
,,,,1000 to 10000,1000 to 10000,,,< 100,++ (≥150 and <350),Cc1cc(C(F)(F)F)cc(N[C@@H]2[C@@H](C(C)(C)C)[C@H](C(=O)NS(=O)(=O)N(C)C)N(C(=O)C3CCCCC3)[C@@H]2c2ccccc2)n1 (racemic) [III-54]
